From ChEMBL document CHEMBL1201862, “PubChem BioAssay data set” (2004)
Active and inactive are the calls of the source.

What was measured:
[1] = target: Peroxisome proliferator-activated receptor gamma/Nuclear receptor coactivator 1 (Homo sapiens, UniProt P37231); type: functional;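 also: agonist potency as compounds enhance coactivator SRC-1 recruitment to PPARgamma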
[2] = target: Peroxisome proliferator-activated receptor gamma/Nuclear receptor coactivator 2 (Homo sapiens, UniProt P37231); type: functional;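 also: agonist potency for raising coactivator recruitment to the receptor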
Peroxisome proliferator-activated receptor gamma/Nuclear receptor coactivator 2, sequence (P37231 whole entry): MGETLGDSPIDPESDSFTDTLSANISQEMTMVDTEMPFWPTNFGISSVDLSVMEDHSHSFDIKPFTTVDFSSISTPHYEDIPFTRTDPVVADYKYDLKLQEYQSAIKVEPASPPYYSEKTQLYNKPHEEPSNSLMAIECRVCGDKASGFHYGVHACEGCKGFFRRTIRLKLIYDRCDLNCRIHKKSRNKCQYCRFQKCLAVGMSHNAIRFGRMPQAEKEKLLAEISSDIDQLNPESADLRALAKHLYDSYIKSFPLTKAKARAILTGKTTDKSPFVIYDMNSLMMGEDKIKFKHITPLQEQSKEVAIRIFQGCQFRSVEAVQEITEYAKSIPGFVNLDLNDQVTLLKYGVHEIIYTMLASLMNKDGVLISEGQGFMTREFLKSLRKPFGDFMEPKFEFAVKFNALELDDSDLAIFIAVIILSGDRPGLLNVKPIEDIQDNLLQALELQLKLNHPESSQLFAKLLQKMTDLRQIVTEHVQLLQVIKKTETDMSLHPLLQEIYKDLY
Peroxisome proliferator-activated receptor gamma/Nuclear receptor coactivator 2, sequence (Q15596 whole entry, further chain): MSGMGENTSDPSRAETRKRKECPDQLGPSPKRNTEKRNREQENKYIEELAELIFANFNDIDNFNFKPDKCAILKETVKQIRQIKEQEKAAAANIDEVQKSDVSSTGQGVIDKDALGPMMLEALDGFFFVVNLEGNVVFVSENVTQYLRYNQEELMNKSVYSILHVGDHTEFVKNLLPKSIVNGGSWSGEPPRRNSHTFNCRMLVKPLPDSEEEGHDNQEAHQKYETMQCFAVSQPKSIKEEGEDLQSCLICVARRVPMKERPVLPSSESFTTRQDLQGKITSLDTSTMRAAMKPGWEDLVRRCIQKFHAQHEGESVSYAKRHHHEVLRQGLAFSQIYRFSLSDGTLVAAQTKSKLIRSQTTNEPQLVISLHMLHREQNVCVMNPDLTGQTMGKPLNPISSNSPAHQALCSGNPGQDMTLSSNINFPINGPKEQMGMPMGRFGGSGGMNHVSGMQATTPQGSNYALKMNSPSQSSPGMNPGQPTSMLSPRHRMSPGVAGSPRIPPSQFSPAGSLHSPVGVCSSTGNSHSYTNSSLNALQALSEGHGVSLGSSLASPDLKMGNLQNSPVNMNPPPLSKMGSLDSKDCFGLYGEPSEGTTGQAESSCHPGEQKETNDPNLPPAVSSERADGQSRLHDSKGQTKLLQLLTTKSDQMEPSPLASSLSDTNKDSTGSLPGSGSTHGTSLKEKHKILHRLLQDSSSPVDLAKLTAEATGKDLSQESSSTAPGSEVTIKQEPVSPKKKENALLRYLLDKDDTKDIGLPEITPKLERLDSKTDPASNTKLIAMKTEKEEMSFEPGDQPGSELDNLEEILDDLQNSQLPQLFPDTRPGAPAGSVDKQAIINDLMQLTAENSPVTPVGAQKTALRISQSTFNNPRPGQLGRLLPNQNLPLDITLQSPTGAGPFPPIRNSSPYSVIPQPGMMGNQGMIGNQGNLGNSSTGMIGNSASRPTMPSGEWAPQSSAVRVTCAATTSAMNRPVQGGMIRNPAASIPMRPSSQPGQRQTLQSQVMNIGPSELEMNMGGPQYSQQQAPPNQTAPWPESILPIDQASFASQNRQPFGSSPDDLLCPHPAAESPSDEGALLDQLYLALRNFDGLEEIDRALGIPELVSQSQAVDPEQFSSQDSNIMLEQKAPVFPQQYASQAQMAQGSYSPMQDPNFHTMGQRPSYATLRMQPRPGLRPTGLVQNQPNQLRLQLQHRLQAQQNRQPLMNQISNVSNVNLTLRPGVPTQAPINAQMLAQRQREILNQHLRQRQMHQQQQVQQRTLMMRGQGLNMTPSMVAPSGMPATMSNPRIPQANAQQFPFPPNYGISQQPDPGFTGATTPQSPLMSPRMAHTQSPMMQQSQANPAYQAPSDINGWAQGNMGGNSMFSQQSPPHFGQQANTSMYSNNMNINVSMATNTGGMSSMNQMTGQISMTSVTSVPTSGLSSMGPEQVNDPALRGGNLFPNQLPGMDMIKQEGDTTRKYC

[3] = target: Peroxisome proliferator-activated receptor gamma/Nuclear receptor coactivator 3 (Homo sapiens, UniProt P37231); type: functional;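 also: agonist potency for raising coactivator recruitment to the receptor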
[4] = target: T1, NADPH oxidase 1 (Homo sapiens, UniProt Q9Y5S8); type: functional, cell-based;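 also: Cell-based assay with luminescence read-out, IC50 derived from inhibitor dose-response curves; intracellular ROS from endogenous NOX1 in intact HT29 colon cancer cells; potency of inhibitors that lower the ROS luminescence signal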
T1 sequence (Q9Y5S8 whole entry): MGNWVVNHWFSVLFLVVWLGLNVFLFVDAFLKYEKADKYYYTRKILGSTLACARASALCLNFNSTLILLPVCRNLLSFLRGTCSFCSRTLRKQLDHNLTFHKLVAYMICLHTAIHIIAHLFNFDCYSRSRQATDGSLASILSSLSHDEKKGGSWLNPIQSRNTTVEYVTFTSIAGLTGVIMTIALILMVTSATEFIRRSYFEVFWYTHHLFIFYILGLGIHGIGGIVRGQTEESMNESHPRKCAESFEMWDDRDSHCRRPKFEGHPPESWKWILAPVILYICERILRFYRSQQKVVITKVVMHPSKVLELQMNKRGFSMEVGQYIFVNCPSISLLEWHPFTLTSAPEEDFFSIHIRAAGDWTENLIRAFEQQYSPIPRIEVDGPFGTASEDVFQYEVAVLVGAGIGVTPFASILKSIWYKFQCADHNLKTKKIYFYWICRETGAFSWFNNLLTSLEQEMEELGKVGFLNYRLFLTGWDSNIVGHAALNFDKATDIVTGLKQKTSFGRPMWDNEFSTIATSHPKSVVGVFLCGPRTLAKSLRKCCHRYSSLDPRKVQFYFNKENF

[5] = target: T2, Leucine aminopeptidase (Plasmodium falciparum 3D7, UniProt Q8IL11); assay: P. falciparum M17LAP inhibitors, primary screen, biochemical, fluorogenic H-Leu-NHMec substrate, 1536-well (AID 1619); type: functional
T2 sequence (Q8IL11 whole entry): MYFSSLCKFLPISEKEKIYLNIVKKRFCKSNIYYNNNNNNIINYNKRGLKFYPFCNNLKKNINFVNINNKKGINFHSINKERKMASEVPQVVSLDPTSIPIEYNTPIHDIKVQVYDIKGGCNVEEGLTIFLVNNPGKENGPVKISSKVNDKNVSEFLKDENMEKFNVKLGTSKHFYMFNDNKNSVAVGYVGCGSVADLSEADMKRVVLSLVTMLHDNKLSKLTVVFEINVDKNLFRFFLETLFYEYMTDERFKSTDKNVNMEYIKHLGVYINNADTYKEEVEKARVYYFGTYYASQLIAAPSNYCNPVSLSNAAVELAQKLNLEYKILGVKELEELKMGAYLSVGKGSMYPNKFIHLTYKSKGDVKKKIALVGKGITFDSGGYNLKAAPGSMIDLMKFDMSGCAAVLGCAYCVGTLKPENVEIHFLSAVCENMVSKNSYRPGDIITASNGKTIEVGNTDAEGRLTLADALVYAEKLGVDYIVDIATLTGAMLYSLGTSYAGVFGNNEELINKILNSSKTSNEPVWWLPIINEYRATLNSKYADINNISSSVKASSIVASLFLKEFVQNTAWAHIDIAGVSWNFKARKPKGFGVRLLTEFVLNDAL

[6] = target: T3, Protein RecA (Mycobacterium tuberculosis, UniProt P9WHJ3); assay: Fluorescence Cell-Free Homogeneous Dose Retest to Identify Inhibitors of RecA-Intein Splicing Activity. [Related pubchem assays (depositor defined):AID2097, AID2223, AID489010, AID492950]; type: functional
T3 sequence (P9WHJ3 whole entry): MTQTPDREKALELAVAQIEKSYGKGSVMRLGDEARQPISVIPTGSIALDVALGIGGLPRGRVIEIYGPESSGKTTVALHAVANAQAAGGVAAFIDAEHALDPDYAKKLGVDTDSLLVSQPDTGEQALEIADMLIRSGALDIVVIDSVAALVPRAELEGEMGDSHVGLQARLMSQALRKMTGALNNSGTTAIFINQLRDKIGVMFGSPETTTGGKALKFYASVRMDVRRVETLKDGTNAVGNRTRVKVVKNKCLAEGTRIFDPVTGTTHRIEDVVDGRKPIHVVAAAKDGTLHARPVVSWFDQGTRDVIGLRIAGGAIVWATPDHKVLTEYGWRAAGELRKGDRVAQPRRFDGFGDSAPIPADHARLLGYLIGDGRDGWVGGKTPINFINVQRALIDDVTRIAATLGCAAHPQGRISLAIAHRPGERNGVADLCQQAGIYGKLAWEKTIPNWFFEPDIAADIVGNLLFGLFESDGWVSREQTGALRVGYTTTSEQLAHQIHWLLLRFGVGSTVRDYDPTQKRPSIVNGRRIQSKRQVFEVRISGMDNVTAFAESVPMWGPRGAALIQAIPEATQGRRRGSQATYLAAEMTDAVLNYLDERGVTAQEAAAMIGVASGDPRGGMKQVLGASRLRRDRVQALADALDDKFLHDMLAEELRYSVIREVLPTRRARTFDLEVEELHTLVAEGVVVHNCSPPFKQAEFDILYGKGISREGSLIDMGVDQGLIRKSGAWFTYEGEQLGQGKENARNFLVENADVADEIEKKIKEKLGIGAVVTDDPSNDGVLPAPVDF

[7] = target: T4, Replicative DNA helicase DnaB (Mycobacterium tuberculosis, UniProt P9WMR3); assay: DnaB intein splicing inhibitors, dose response, biochemical, cell-free fluorescence (AID 449749); type: functional
T4 sequence (P9WMR3 whole entry): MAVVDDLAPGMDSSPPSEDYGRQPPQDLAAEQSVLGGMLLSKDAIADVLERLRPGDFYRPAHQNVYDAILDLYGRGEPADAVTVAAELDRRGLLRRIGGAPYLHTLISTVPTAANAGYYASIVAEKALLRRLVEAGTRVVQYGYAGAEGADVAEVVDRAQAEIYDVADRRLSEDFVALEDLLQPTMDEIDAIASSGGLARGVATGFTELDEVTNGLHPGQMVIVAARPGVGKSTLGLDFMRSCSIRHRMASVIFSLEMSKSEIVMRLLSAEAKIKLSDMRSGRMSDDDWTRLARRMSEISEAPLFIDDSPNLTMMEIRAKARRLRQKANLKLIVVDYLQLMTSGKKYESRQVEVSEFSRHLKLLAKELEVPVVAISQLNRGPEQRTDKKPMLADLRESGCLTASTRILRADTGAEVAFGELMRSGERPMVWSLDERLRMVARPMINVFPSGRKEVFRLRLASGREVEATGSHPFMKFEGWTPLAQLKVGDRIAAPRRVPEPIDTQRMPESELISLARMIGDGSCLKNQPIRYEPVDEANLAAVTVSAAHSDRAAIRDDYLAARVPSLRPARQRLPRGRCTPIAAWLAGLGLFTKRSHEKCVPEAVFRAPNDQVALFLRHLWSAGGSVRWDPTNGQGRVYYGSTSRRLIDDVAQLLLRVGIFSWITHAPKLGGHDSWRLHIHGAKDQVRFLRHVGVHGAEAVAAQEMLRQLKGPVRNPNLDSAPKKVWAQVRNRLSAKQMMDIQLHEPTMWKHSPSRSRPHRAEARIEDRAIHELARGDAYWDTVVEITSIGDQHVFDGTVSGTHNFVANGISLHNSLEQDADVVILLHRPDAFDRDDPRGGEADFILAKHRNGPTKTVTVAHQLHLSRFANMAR

[8] = target: Kallikrein-7 (Homo sapiens, UniProt P49862); assay: Fluorescence Intensity-based biochemical primary high throughput dose response assay to identify activators of kallikrein-7 (K7) zymogen.
Kallikrein-7, sequence (P49862 whole entry): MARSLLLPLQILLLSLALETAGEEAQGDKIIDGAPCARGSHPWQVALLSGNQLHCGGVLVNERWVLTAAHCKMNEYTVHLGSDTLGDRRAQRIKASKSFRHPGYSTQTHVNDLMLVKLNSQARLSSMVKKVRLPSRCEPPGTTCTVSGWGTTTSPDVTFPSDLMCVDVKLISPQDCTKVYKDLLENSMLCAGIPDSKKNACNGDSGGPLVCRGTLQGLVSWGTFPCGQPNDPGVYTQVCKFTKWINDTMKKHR

[9] = target: Cytochrome P450 2C19 (Homo sapiens, UniProt P33261); assay: Cytochrome panel assay with activity outcomes. Panel member name: p450-cyp2c19 Compounds with AC50 equal or less than 10 uM are considered active; type: functional; details: read-out: AC50
Cytochrome P450 2C19, sequence (P33261 whole entry): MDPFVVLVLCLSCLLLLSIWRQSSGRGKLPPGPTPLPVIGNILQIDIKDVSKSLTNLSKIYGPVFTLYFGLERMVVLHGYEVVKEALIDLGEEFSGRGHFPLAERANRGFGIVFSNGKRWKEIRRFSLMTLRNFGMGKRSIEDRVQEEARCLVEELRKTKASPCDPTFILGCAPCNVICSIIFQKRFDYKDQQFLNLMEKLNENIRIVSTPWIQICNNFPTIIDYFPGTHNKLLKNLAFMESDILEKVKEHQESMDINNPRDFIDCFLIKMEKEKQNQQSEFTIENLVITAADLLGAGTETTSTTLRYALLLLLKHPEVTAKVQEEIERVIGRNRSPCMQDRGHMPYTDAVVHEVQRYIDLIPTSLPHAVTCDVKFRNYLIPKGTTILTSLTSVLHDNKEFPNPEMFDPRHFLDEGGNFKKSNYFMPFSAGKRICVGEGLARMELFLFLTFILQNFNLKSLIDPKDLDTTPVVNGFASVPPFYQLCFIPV

[10] = tested on: H4; assay: Luminescence Cell-Based Dose Response HTS to Identify Activators of 5'UTR Stem-Loop Driven Prion Protein mRNA Translation in H4 Neuroglioblastoma Cells. [Related pubchem assays: 1829 (Project Summary), 1814 (Primary HTS)]; type: functional; details: Homo sapiens
[11] = Luminescence Cell-Based Dose Response to Identify Activators of 5'UTR Stem-Loop Driven Prion Protein mRNA Translation in H4-C Neuroglioblastoma Cells. [Related pubchem assays: 1829 (Project Summary), 1814 (Primary HTS)]; type: functional
[12] = Luminescence Cell-Based Dose Confirmation to Identify Activators of 5'UTR Stem-Loop Driven Alpha-Synuclein mRNA Translation in H4 Neuroglioblastoma Cells. [Related pubchem assays: 1829 (Project Summary), 1814 (Primary HTS)]; type: functional
[13] = Luminescence Cell-Based Dose Response HTS to Identify Activators of Luciferase Translation or Activity in H4 […] Cells. [Related pubchem assays: 1829 (Project Summary), 1814 (Primary HTS)]; type: functional
[14] = Luminescence Cell-Based Dose Response to Identify Activators of Luciferase Translation or Activity in H4-C Neuroglioblastoma Cells. [Related pubchem assays: 1829 (Project Summary), 1814 (Primary HTS)]; type: functional
[15] = Luminescence Cell-Based Dose Confirmation HTS to Identify Activators of 5'UTR Stem-Loop Driven Alpha-Synuclein mRNA Translation in H4 Neuroglioblastoma Cells. [Related pubchem assays: 1829 (Project Summary), 1814 (Primary HTS)]; type: functional
[16] = inhibitors of Vif binding to APOBEC3G peptide, primary screen, biochemical, TR-FRET, GST-Vif 1-94, biotin-A3G peptide, dose response retest (AID 1117319); type: functional;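 also: TR-FRET signal of purified GST-Vif binding a biotinylated A3G peptide; inhibitors lower the FRET signal by blocking Vif and A3G binding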
[17] = inhibitors of SNCA 5'UTR-driven reporter translation, confirmation, H4 neuroglioma cells, luminescence (AID 1988); type: functional, cell-based
[18] = Luminescence Cell-Based Dose Response HTS to Identify Inhibitors of 5'UTR Stem-Loop Driven Prion Protein mRNA Translation in H4 Neuroglioblastoma Cells. [Related pubchem assays: 1827 (Project Summary), 1813 (Primary HTS)]; type: functional
[19] = inhibitors of firefly luciferase expression or activity, dose response, H4 neuroglioma cells, luminescence (AID 1990); type: functional, cell-based
[20] = P. falciparum late gametocyte killing, dose response, luminescence (AID 1117278); type: functional, cell-based;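 also: gametocytes exposed to compound for 24 hours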
[21] = Jurkat T cell cytotoxicity, dose response, cytotoxicity control for P. falciparum gametocyte viability project, luminescence (AID 1117277); type: functional, cell-based;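 also: potency reflects loss of cellular ATP meaning fewer viable cells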
[22] = HEp-2 cell cytotoxicity, dose response, cytotoxicity control for RSV inhibitor project, HTS (AID 2410); type: functional; details: human respiratory syncytial virus
[23] = P. falciparum ATP4 D1247Y mutant growth inhibitors, dose response, NITD609-resistant line, SYBR Green, dry powder (AID 1159571); type: functional, cell-based;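 also: parasites synchronized at ring stage by sorbitol before testing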
[24] = P. falciparum Dd2 growth inhibitors, dose response, SYBR Green, dry powder samples (AID 1159566); type: functional, cell-based;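 also: potency for growth inhibition with lower SYBR green DNA signal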
[25] = P. falciparum Dd2 growth inhibitors, dose response, SYBR Green, cherry-picked samples (AID 1159567); type: functional, cell-based
[26] = P. falciparum 3D7-ScDHODH growth inhibitors, dose response, SYBR Green, dry powder samples (AID 1159570); type: functional, cell-based;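 also: parasite growth measured after 72 hours of compound exposure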

Peroxisome proliferator-activated receptor gamma/Nuclear receptor coactivator 1, sequence (P37231 whole entry): as the sequence (P37231 whole entry) above
Peroxisome proliferator-activated receptor gamma/Nuclear receptor coactivator 1, sequence (Q15788 whole entry, further chain): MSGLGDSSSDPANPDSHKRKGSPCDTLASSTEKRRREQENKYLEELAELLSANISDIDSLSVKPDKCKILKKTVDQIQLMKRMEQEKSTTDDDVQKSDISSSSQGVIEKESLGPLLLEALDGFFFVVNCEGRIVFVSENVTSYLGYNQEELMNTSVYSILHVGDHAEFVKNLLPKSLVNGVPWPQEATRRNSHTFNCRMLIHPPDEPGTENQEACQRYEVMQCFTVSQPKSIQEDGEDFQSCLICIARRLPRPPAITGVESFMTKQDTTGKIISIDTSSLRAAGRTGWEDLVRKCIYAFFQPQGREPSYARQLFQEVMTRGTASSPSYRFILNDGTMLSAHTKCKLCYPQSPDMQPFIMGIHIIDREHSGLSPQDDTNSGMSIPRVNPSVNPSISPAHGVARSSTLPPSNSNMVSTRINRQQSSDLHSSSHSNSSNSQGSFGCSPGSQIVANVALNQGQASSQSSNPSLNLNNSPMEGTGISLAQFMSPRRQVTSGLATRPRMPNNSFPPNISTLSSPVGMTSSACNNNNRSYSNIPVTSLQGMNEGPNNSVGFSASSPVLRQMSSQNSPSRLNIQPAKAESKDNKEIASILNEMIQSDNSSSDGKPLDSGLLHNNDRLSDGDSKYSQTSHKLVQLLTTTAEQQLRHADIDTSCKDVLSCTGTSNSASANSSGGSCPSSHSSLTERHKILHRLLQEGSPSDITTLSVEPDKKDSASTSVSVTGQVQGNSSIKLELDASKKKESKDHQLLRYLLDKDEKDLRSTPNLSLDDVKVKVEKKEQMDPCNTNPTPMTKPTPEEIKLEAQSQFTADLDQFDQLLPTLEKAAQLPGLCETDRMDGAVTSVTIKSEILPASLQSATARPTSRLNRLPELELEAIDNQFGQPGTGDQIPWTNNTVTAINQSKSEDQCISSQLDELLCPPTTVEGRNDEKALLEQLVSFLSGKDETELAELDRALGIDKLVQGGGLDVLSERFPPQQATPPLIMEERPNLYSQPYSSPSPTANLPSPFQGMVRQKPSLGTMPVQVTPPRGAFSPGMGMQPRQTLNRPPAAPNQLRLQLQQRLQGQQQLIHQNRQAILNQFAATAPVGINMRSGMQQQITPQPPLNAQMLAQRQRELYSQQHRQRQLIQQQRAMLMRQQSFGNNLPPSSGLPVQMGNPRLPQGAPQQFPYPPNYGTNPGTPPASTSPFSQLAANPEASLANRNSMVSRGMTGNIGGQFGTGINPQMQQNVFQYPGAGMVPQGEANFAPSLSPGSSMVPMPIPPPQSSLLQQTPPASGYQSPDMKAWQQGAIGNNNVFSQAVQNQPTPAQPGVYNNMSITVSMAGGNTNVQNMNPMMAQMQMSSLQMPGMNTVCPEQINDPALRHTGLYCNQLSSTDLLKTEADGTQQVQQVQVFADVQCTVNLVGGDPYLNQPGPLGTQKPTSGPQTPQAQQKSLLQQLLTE

For `CCOC(=O)c1c(NC(=O)C(C)Sc2cn(C)c3ccccc23)sc2c1CCC2` (stereo unspecified), the EC50 [1] was 29.2 µM (not active), the EC50 [2] was 29.5 µM (not active) and the EC50 [3] was 32.3 µM (not active).
For `O=C(Oc1cccc(-n2cnnn2)c1)c1sc2ccccc2c1Cl`, the IC50 [4] was > 17 µM (not active).
In the case of `N#C/C(=C/c1cn(CC(=O)O)c2ccccc12)c1ccc(F)cc1`, the IC50 [5] is reported as 21.2 µM (active).
In the case of `Cc1cc(C)cc(Oc2coc3cc(OC(=O)c4cccs4)ccc3c2=O)c1`, the EC50 [6] is reported as 18.8 µM (active), the AC50 [7] is reported as 21.2 µM (active) and the EC50 [8] is reported as 66.8 µM (inactive). For the same compound, the AC50 [9] was 2.82 µM (inconclusive).
For `COc1ccc(-c2csc(N3CCSCC3)n2)cc1`, the EC50 [10] was 0.112 µM (active), the EC50 [11] was 0.887 µM (active) and the EC50 [12] was 0.579 µM (active). For the same compound, the EC50 [13] was 3.17 µM (active), the EC50 [14] was 0.375 µM (active) and the EC50 [15] was 1.64 µM (active).
For `NNC(=O)c1cnn(-c2ccccc2)c1-n1cccc1`, the EC50 [1] was > 79.4 µM (not active), the EC50 [2] was > 79.4 µM (not active) and the EC50 [3] was > 79.4 µM (not active).
For `COc1ccc(OC(=O)c2sc3ccccc3c2Cl)cc1`, the IC50 [4] was > 17 µM (not active).
With `COc1ccccc1C1C=C(c2ccc(C)cc2)Nc2nnnn21` (stereo unspecified) the IC50 [16] was > 100 µM (active) and the EC50 [8] was 23.5 µM (inactive).
With `COc1cccc(N2CCN(S(=O)(=O)c3ccc4[nH]c(-c5ccccc5)nc4c3)CC2)c1` the EC50 [17] was > 120 µM (not active), the EC50 [18] was > 120 µM (not active) and the EC50 [19] was 29.8 µM (active). For the same compound, the IC50 [20] was > 109 µM (inactive) and the IC50 [21] was > 83.3 µM (inactive).
With `O=C(Nc1nc2ccc([N+](=O)[O-])cc2s1)c1ccco1` the IC50 [20] was > 109 µM (inactive) and the IC50 [21] was > 83.2 µM (inactive).
In the case of `CCSc1n[nH]c2nc3nc4c(C)cccc4c-3nn12`, the IC50 [20] is reported as > 109 µM (inactive) and the IC50 [21] is reported as > 83.3 µM (inactive).
For `Cc1cc(/C=C2/C(=O)N(C)C(=S)N2C)c(C)n1C1CC1`, the EC50 [10] was > 120 µM (not active), the EC50 [11] was 0.297 µM (active) and the CC50 [22] was 40.7 µM (active). The EC50 [12] was 0.343 µM (active), the EC50 [13] was < 0.1 µM (inconclusive) and the EC50 [1] was > 79.4 µM (not active). The EC50 [2] was > 79.4 µM (not active), the EC50 [14] was 0.337 µM (active) and the EC50 [3] was > 79.4 µM (not active).
For `CCOC(=O)N1CCN(C(=O)C2CCCN(S(=O)(=O)c3ccc(C)cc3)C2)CC1` (stereo unspecified), the IC50 [16] was > 100 µM (active).
With `O=C(O)c1ccc(/C=N/Nc2ccc(F)cc2F)cc1` the IC50 [5] was 99.4 µM (active).
In the case of `C[C@@H]1CN([C@H](C)CO)C(=O)c2cc(C#CCc3ccccc3)cnc2O[C@H]1CN(C)C(=O)C1CCC1`, the AC50 [23] is reported as 1.54 µM (active), the AC50 [24] is reported as 1.88 µM (active) and the AC50 [25] is reported as 2.18 µM (active). For the same compound, the AC50 [26] was 2.1 µM (active).
For `Cc1ccccc1-c1nc(-c2ccccc2)c(-c2ccccc2)[nH]1`, the IC50 [4] was > 17 µM (not active).
